Assay results from paper PMC2996141 (Journal of chemical information and modeling, 2010).
Entries after “also recorded” stand apart in the source; their conditions may differ. Like-named read-outs stand apart in the source and are kept apart here.

Experiments:
cell growth = details: cited from earlier work
[1] = target: microtubules (laulimalide/peloruside A site) (Bos taurus, UniProt Q6B856); test: Inhibition of [^3H]peloruside A binding to microtubules; parameters: species or system Bovine; details: for inhibition at 20 µM: read-out: % inhibition ± SD, radiolabeled ligand [^3H]peloruside A; for % inhibition ± SD, radiolabeled ligand [^3H]peloruside A: 2.0 µM tubulin as microtubules, radiolabeled ligand 4.0 µM, inhibitor 20 µM; for type of inhibition of [^3H]peloruside A binding: Hanes analysis; for Ki: read-out: apparent Ki, inhibition of [^3H]peloruside A binding, Dixon analysis, competitive
Chain of microtubules (laulimalide/peloruside A site) (Q6B856 whole entry): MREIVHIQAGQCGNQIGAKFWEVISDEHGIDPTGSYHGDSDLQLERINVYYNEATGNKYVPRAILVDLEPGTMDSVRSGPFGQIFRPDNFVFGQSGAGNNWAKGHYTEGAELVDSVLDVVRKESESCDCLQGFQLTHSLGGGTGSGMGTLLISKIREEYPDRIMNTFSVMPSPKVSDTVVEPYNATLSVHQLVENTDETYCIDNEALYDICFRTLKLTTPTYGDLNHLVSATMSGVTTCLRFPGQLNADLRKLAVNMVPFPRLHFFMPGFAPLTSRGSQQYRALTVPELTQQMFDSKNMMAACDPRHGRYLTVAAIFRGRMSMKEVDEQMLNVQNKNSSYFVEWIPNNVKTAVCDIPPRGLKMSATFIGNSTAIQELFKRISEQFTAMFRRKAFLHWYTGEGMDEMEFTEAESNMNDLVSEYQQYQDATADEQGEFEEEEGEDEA
Chain of microtubules (laulimalide/peloruside A site) (P81947 whole entry partner): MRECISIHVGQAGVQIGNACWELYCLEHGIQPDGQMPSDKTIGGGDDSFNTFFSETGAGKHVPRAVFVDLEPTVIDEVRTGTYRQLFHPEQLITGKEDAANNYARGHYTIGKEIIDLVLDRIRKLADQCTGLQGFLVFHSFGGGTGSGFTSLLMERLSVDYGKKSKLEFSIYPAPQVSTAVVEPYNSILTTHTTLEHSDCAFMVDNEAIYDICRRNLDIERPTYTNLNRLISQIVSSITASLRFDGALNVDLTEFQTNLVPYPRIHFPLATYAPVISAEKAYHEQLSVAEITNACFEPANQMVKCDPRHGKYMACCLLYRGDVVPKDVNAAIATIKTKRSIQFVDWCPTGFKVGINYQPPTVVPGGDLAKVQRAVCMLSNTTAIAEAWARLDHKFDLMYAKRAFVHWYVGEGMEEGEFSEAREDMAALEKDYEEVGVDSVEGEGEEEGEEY

[2] = tested on: microtubules (taxoid site); test: Inhibition of [^3H]paclitaxel binding to microtubules; parameters: species or system Bovine; details: for % inhibition ± SD, radiolabeled ligand [^3H]paclitaxel: 2.0 µM tubulin as microtubules, radiolabeled ligand 4.0 µM, inhibitor 20 µM
[3] = target: T1, tubulin polymer (microtubules) (Bos taurus, UniProt Q6B856); test: Binding of [^3H]paclitaxel to preformed tubulin polymer, Scatchard analysis; parameters: species or system Bovine
T1 sequence (Q6B856 whole entry): as the sequence (Q6B856 whole entry) above
T1 sequence (P81947 whole entry partner): as the sequence (P81947 whole entry partner) above

[4] = target: T1, tubulin polymer (microtubules); test: Binding of [^3H]peloruside A to preformed tubulin polymer, Scatchard analysis; parameters: species or system Bovine

Compound | ability to inhibit [^3H]peloruside A binding (words) [1] | inhibition at 20 µM [1] | ability to inhibit [^3H]paclitaxel binding [2] | % inhibition ± SD, radiolabeled ligand [^3H]paclitaxel [2] | further results
C=C1C[C@H](C)C[C@@H]2CC=C[C@@H](C/C=C\C(=O)O[C@@H](/C=C/[C@@H]3CC(C)=CCO3)[C@@H](O)C[C@@H]3O[C@H]3[C@@H](O)C1)O2 [compound 13, neolaulimalide] |  |  |  |  | activity in cells and with tubulin relative to laulimalide (cell growth; ref Gollner et al. 41): equivalent to that of laulimalide
C=C/C=C\[C@H](C)[C@H](OC(N)=O)[C@@H](C)[C@H](O)[C@@H](C)C/C(C)=C\[C@H](C)[C@@H](O)[C@@H](C)/C=C\[C@@H](O)C[C@@H]1OC(=O)[C@H](C)[C@@H](O)[C@H]1C [discodermolide] | essentially no ability to inhibit; also recorded: little activity | 5 ± 2% | strong inhibitors | 87 ± 2% | 
C/C(=C\c1csc(C)n1)[C@@H]1C[C@@H]2O[C@]2(C)CCC[C@H](C)[C@H](O)[C@@H](C)C(=O)C(C)(C)[C@@H](O)CC(=O)O1 [epothilone B] | essentially no ability to inhibit; also recorded: little activity | 2.2 ± 5% | strong inhibitors | 79 ± 5% | 
C=C1C[C@H](C)C[C@@H]2CC=C[C@@H](C/C=C\C(=O)O[C@H]([C@@H](O)/C=C/[C@@H]3CC(C)=CCO3)C[C@@H]3O[C@H]3[C@@H](O)C1)O2 [laulimalide] | inhibitory; also recorded: potent competitive inhibitor |  | essentially inactive | 1.7 ± 5% | % inhibition ± SD, radiolabeled ligand [^3H]peloruside A [1]: 90 ± 0.1%; type of inhibition of [^3H]peloruside A binding [1]: competitive inhibitor; Ki [1]: 250 nM
CC(=O)O[C@H]1C(=O)[C@@]2(C)[C@H]([C@H](OC(=O)c3ccccc3)[C@]3(O)C[C@H](OC(=O)[C@H](O)[C@@H](NC(=O)c4ccccc4)c4ccccc4)C(C)=C1C3(C)C)[C@]1(OC(C)=O)CO[C@@H]1C[C@@H]2O [paclitaxel] | little activity | 6.8 ± 0.5% |  |  | Kd [3]: 240 nM; ability to inhibit [^3H]peloruside A binding (words) ([1]; listed as Paclitaxel): essentially no ability to inhibit
CC[C@@H](/C=C(/C)[C@H]1C[C@H](OC)C[C@@H](O)C(C)(C)[C@]2(O)O[C@H](C[C@H](OC)[C@@H](O)C(=O)O1)C[C@H](OC)[C@@H]2O)CO [peloruside A] |  |  |  | 5.1 ± 6% | number of binding sites per tubulin αβ-dimer in microtubules [4]: one binding site
CC[C@H](/C=C(/C)[C@@H]1C[C@@H](OC)C[C@H](O)C(C)(C)[C@@]2(O)O[C@@H](C[C@@H](O)[C@H](O)C(=O)O1)C[C@@H](OC)[C@H]2O)CO [peloruside B] |  |  |  |  | cytotoxicity relative to peloruside A (cell growth): about three-fold less cytotoxic
(11-R)-peloruside A | inhibitory |  | essentially inactive | 0 ± 8% | % inhibition ± SD, radiolabeled ligand [^3H]peloruside A [1]: 49 ± 1%; type of inhibition of [^3H]peloruside A binding [1]: competitive inhibitors; Ki [1]: 9300 nM
